Measured values from patent US12678453B2, “Aerosolized formulations of HIV protease inhibitors for the treatment of airway reflux” (The Medical College of Wisconsin, Inc., priority 2020, dated 2026).
Entries after “also recorded” stand apart in the source; their conditions may differ.

Experiments:
[1] = system: mouse model of laryngopharyngeal reflux (LPR); assay: in vivo mouse model of LPR (laryngeal wounding and pepsin instillation, H&E histology); settings: for laryngeal histology (H&E) / pepsin-mediated laryngeal injury: pepsin pH7 group; for laryngeal histology (H&E): solvent (saline/PBS pH7) group
Source text: An in vivo mouse model of direct application of pepsin, to mimic laryngeal exposure during LPR, and treatment with select HIV protease inhibitors by either gavage (oral systemic delivery) or aerosolized delivery (inhaled local delivery) was used. […] Each group contained 3 mice. Six-week-old female Jackson A/J mice (Jackson Laboratory, Bar Harbor, ME), weighed one day after arrival, then weekly, on Mondays thereafter.
Avertin was the preferred anesthetic for the brief application time needed as it has a rapid induction, produces a short surgical anesthesia, and has a rapid recovery. […] For this experiment, isoflurane inhalation was used. The isoflurane, self-scavenging machine, was operated at 3% isoflurane with 2.5 liters of air per minute (LPM). The induction chamber was charged for 3-5 minutes prior to the mice being anesthetized. Mice were placed in the induction chamber for 3-5 minutes prior to any wounding or administrations. Anesthesia records were kept according to IACUC policy.
Animals secured by a copper wire attached to the board from which the mice were suspended by their upper teeth. This caused the lower jaw to fall open naturally, exposing the larynx and permitting visualization with a Zeiss microscope at 6× magnification. […] Under direct visualization, the subglottis, glottis, and supraglottis regions were superficially scratched interiorly from distal to proximal as the needle was pulled out gently, making a mild abrasion. This procedure was performed twice, with one week between woundings.
To examine the effect pepsin at acid and nonacid pH, animals were treated for 2 weeks with laryngeal instillation of pepsin (20 μL at 0.3 mg/ml, pH 7.0 or pH 4.0) at 24, 48, and 72 h post wounding procedure. During weeks 3 and 4, animals were treated with laryngeal instillation for 3 days per week. Mice were sacrificed and samples collected on Friday of the fourth week.
The twelve mice in the aerosol groups were condition in the nose-only exposure chamber (Intox) on three separate days by exposure to dry air for 10 min. Beginning the Monday (day 1) of the next week, aerosols and gavages were performed on the mice Monday through Friday (5 exposures). The aerosols and gavages continued Monday-Friday for three more weeks, with the final week consisting of 4 total exposure days, Monday-Thursday, (19 total) with the mice sacrificed and tissues harvested on Friday. Each mouse received two woundings and 12 solvent or pepsin administrations. Wounding and intratracheal administrations were concurrent with the aerosol and gavage treatments. The first wounding was performed on day 2, followed by solvent or pepsin administrations on days 3, 4, and 5. The second wounding was performed on day 8, followed by solvent or pepsin administrations on days 9, 10, and 11. In weeks 3 and 4, mice received solvent or pepsin administrations on days 16, 17, and 18 and days 23, 24, and 25. Day 26 was sacrifice and tissue harvest.
A 10 mL suspension of drug in ethanol was placed in the baffle, such that the concentration would remain constant at the equilibrium solubility. Droplets of ethanol containing dissolve drug were generated by an ultrasonic atomizer (nominal frequency 1.7 MHz) entrained by air at a flow rate of 0.5 LPM with a custom-built glass baffle (University of Minnesota, Department of Chemistry Glass Shop). The aerosol cloud was then passed through a cylindrical drying column containing an annular ring of charcoal. The ethanol is removed and the emanating dry aerosol particles of pure drug were then directed into the exposure chamber.
The mass deposited on the filters in a fixed collection time was measured gravimetrically, and with the collection time, allowed calculation of the total output rate (mg/min). The aerosol concentration (mass/volume of air) was calculated by dividing the total output rate by the air flow rate (0.5 LPM).

[2] = solubility; type: physicochemical; settings: co-crystallization solution
Experimental: Lyophilized porcine pepsin A (Worthington Biochemical Corporation) was dissolved in water at 200 mg/mL. All ligand stock solutions, except for saquinavir mesylate, were prepared as saturated solutions in DMSO in order to dissolve the maximal amount of ligand. The solutions were centrifuged and an appropriate volume of the supernatant was added to the pepsin solution so that final mixture contained 1.6% of the ligand stock by volume. The mixtures were incubated at room temperature for 1 h, centrifuged for 10 min at 31,000 rcf, and the supernatant was used for crystallization experiments. […] In order to maximize the solubility of saquinavir in the crystallization solution, we tested solutions from the CryoSol screen (Molecular Dimensions) (PMID 28626721). Mixture SM2 consisting of 37.5% v/v dioxane, 25% v/v DMSO, 12.5% v/v ethylene glycol, 12.5% v/v 1,2-propanediol, and 12.5% v/v glycerol allowed us to increase the amount of ligand solution in the co-crystallization mixture without damaging the protein. The saturated solution of saquinavir in SM2 was treated in the same manner as solutions of other ligands except that its amount in the solution with pepsin was increased to 5% by volume.

SMILES	pepsin-mediated laryngeal injury (multi-layered, reactive epithelia and cell apoptosis) ([1]; aerosol, 12 mg/kg/d)	laryngeal histology (H&E) / pepsin-mediated laryngeal injury ([1]; aerosol)	laryngeal histology (H&E) ([1]; aerosol)	laryngeal histology (H&E) / pepsin-mediated laryngeal injury ([1]; gavage)	laryngeal histology (H&E) / pepsin-mediated laryngeal injury ([1]; gavage, listed as Darunavir)	laryngeal histology (H&E) ([1]; gavage)	solubility [2]
CC(C)CN(C[C@@H](O)[C@H](Cc1ccccc1)NC(=O)O[C@H]1CO[C@H]2OCC[C@H]21)S(=O)(=O)c1ccc(N)cc1 [darunavir, [(3a S,4R,6aR)-2,3,3a,4,5,6a-hexahydrofuro[2,3-b]furan-4-yl] N-[(2S,3R)-4-[(4-aminophenyl)sulfonyl-(2-methylpropyl)amino]-3-hydroxy-1-phenylbutan-2-yl]carbamate]	effective in preventing pepsin mediated injury	normal histology; also recorded: mild protection against pepsin-mediated damage	normal histology	appeared similar	mild reactive epithelia in the pepsin group but less than pepsin control	mild reactive epithelia in the solvent group, but less than pepsin control; also recorded: mild reactivity (rare intraepithelial lymphocytes)	–
CC(C)(C)NC(=O)[C@@H]1C[C@@H]2CCCC[C@@H]2CN1C[C@@H](O)[C@H](Cc1ccccc1)NC(=O)[C@H](CC(N)=O)NC(=O)c1ccc2ccccc2n1 [saquinavir, (2S)—N-[(2S,3R)-4-[(3 S,4aS,8aS)-3-(tert-butylcarbamoyl)-3,4,4a,5,6,7,8,8a-octahydro-1H-isoquinolin-2-yl]-3-hydroxy-1-phenylbutan-2-yl]-2-(quinoline-2-carbonylamino)butanediamide]	–	–	–	–	–	–	low solubility
